This assay has as its target T1, Human TRPV1 expressing CHO cells (Homo sapiens, UniProt Q8NER1).
T1 construct: expressed in transfected cells; host or cells: CHO cells under G-418 selection
The assay can be described thus: Screening for TRPV1 antagonist using the 45Calcium uptake assay (inhibition of capsaicin induced cellular uptake of radioactive calcium). Format: cell-based. Conditions: for inhibition at 1 µM: CHO; for inhibition at 1 µM / % inhibition of ^45Ca uptake at 1 μM: test compound 1 μM, capsaicin 250 nM, relative to maximum ^45Ca uptake induced by capsaicin alone; for IC50: inhibition of capsaicin (250 nM) induced ^45Ca uptake. How it is done: The inhibition of TRPV1 receptor activation was followed as inhibition of capsaicin induced cellular uptake of radioactive calcium which represents calcium influx exclusively through the plasma membrane associated TRPV1 receptor.
Stock solution of capsaicin was made in ethanol and test compounds in 100% DMSO. Stock solutions were diluted to appropriate final concentrations in assay buffer keeping the final DMSO concentration between 0.1% and 0.55%.
^45Ca was used at a final concentration of 2.5 μCi/ml (^45Ca, ICN).
Assay buffer was composed of F-12 DMEM medium supplemented with 1.8 mM CaCl2 (final conc.) and 0.1% Bovine serum albumin. (BSA from SIGMA)
Wash buffer was tyrodes solution supplemented with 0.1% BSA and 1.8 mM calcium. Lysis buffer contained 50 mM Tris-HCl, pH7.5, 150 mM NaCl, 1% Triton X-100, 0.5% deoxycholate and 0.1% Sodium dodicyl sulphate (SDS, SIGMA)
Assay was carried out with some modifications the of procedure as described by Toth et. al. (See Toth A et. al., Life Sciences 73 p 487-498, 2003). Human TRPV1 expressing CHO cells were grown in F-12 DMEM (Dulbecco's modified Eagle's medium—GIBCO) medium with 10% FBS (fetal bovine serum Hyclone), 1% penicillin-streptomycin solution, 400 μg/ml of G-418. Cells were seeded 48 h prior to the assay in 96 well plates so as to get ˜50,000 cells per well on the day of experiment. Plates were incubated at 37° C. in the presence of 5% CO2. Cells were then washed twice with 200 μl of assay buffer and re-suspended in 144 μl of the same. Assay was carried out at 30° C. in total volume of 200 μl. Test compounds were added to the cells fifteen minutes before addition of capsaicin, Final concentration of capsaicin in the assay was 250 nM. After 5 minutes of agonist treatment, drug was washed out and wells rinsed with 300 μl of ice cold wash buffer 3×. The cells were lysed in 50 μl lysis buffer for 20 min. 40 μl of cell lysate was mixed with 150 μl of Microscint PS, left overnight for equilibration. Radioactivity in samples was measured as counts per minute (cpm) using Packard Biosciences Top Count. The drug/vehicle/capsaicin treated ^45Ca uptake values were normalized over basal ^45Ca value. Data was expressed as % inhibition of ^45Ca uptake by test compound with respect to maximum ^45Ca uptake induced by capsaicin alone. IC50 value was calculated from dose response curve by nonlinear regression analysis using GraphPadPRISM software.

Where a name gives a salt, the structure may show the parent alone.

T1 sequence (Q8NER1 whole entry): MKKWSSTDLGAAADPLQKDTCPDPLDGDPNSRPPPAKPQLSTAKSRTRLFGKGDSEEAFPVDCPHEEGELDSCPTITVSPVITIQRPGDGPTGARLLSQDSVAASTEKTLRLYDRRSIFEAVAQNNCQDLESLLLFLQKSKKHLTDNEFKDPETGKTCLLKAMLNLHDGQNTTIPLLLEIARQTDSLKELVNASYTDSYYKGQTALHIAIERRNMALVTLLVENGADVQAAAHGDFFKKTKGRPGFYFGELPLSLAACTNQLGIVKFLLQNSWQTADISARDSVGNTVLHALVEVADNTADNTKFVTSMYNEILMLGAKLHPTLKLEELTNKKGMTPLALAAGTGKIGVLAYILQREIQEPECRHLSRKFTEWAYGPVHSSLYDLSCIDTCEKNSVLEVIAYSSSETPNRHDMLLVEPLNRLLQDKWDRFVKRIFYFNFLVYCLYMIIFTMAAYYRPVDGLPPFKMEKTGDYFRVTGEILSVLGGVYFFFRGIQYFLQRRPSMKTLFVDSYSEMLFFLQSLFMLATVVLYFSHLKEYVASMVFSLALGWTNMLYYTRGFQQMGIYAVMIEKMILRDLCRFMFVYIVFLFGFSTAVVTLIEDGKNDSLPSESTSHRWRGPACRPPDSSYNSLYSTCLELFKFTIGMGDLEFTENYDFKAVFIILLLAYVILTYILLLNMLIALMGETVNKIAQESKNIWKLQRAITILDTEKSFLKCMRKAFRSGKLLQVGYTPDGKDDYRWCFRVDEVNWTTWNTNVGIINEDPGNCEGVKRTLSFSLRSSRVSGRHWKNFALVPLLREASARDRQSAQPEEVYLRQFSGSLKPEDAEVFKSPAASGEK

One may read the inhibition as the percentage by which the read-out fell short of the control. `O=C(Nc1nc2cc(Cl)ccc2o1)NC1CC2(CCC2)Oc2ccccc21` (racemic) [Example 23, (±) 1-(3,4-Dihydro-spiro[2H-1-benzopyran-2,1′-cyclobutane]-4-yl)-3-(5-chloro-1,3-benzoxazol-2-yl)urea]: the inhibition at 1 µM was under 50%.

As to `O=C(Nc1cccc2c(=O)[nH]ccc12)NC1CC2(CCC2)Oc2ccccc21` (stereo not shown) [Example 30, N′-(1-oxo-1,2-dihydroisoquinolin-5-yl)-N-3,3′,4,4′-tetrahydro-2′H-spiro[chromene-2,1′-cyclobutan]-4-ylurea (N′-(1-oxo-1,2-dihydroisoquinolin-5-yl)-N-3,4-dihydro-2H-spiro[chromene-2,1′-cyclobutan]-4-ylurea)], the “% inhibition of ^45Ca uptake at 1 μM” value was under 50%. As for `O=C(Nc1csc2cnccc12)NC1CC2(CCC2)Oc2ccccc21` (racemic) [Example 20, (±) 1-(3,4-Dihydro-spiro[2H-1-benzopyran-2,1′-cyclobutane]-4-yl)-3-(thieno[2,3-c]pyridine-3-ylurea], the “% inhibition of ^45Ca uptake at 1 μM” value was under 50%. One may read the IC50 as the midpoint of a concentration-inhibition curve. On to `O=C(Nc1cccc2cnccc12)NC1CC2(CCC2)Oc2ccc(Br)cc21` (racemic) [Example 65, (±) 1-(6-Bromo-3,4-dihydro-spiro[2H-1-benzopyran-2,1′-cyclobutane]-4-yl)-3-(isoquinolin-5-yl)urea], for which the inhibition at 1 µM was over 50% and the IC50 was found to be 404 nM.

With `O=C(NCc1cccnc1)NC1CC2(CCC2)Oc2ccccc21` (racemic) [Example 31, (±) 1-(3,4-Dihydro-spiro[2H-1-benzopyran-2,1′-cyclobutan]-4-yl)-3-(pyridin-3-ylmethyl)urea], the inhibition at 1 µM is under 50%. For `O=C(Nc1cccc2cnccc12)NC1CC2(CCC2)Oc2cc(Cl)ccc21` (single isomer, unassigned; (-)) [Example 76, (−) 1-(7-Chloro-3,4-dihydro-spiro[2H-1-benzopyran-2,1′-cyclobutane]-4-yl)-3-(isoquinolin-5-yl)urea], the inhibition at 1 µM was under 50%.

In the case of `O=C(Nc1cccc2cnccc12)NC1CC2(CCC2)Oc2ccccc21` (racemic) [Example 3, (±) 1-(3,4-Dihydro-spiro-[2H-1-benzopyran-2,1′-cyclobutan]-4-yl)-3-(isoquinolin-5-ylurea], the half-maximal inhibitory concentration (IC50) came out at 2.89 nM and the “% inhibition of ^45Ca uptake at 1 μM” value is recorded as 100%. As for `CC(=O)Nc1ccc2c(c1)C(NC(=O)Nc1cccc3cnccc13)CC1(CCC1)O2` (racemic) [Example 78, (±) 1-(6-Acetamido-3,4-dihydro-spiro[2H-1-benzopyran-2,1′-cyclobutane]-4-yl)-3-(isoquinolin-5-yl)urea], the inhibition at 1 µM is under 50%. For the compound `O=C(NC1CC2(CCC2)Oc2ccccc21)N1CCCCC1` (stereo not shown) [Example 39, N-3,4-dihydrospiro[chromene-2,1′-cyclobutan]-4-ylpiperidine-1-carboxamide], the inhibition at 1 µM came to 0%. Regarding `CC(C)(C)c1nnc(NC(=O)NC2CC3(CCC3)Oc3ccccc32)s1` (racemic) [Example 16, (±) 1-(3,4-Dihydro-spiro[2H-1-benzopyran-2,1′-cyclobutane]-4-yl)-3-(5-tert-butyl-1,3,4-thiadiazol-2-yl)urea], the inhibition at 1 µM is over 50% and the IC50 was found to be 797 nM. As to `O=C(Nc1cccc2cnccc12)NC1CC2(CCC2)Oc2c(OC(F)F)cccc21` (racemic) [Example 62, (±) 1-(3,4-Dihydro-8-difluoromethoxy-spiro[2H-1-benzopyran-2,1′-cyclobutane]-4-yl)-3-(isoquinolin-5-yl)urea], the inhibition at 1 µM is under 50%. For the compound `O=C(Nc1ccc(Cl)c2cnccc12)NC1CC2(CCC2)Oc2ccc(Cl)cc21` (racemic) [Example 70, (±) 1-(6-Chloro-3,4-dihydro-spiro[2H-1-benzopyran-2,1′-cyclobutane]-4-yl)-3-(8-chloroisoquinolin-5-yl)urea], the inhibition at 1 µM is under 50%.

As to `Cc1ccc2c(c1)OC1(CCC1)CC2NC(=O)Nc1cccc2cnccc12` (racemic) [Example 41, (±) 1-(3,4-Dihydro-7-methyl-spiro[2H-1-benzopyran-2,1′-cyclobutane]-4-yl-3-(isoquinolin-5-yl)urea], the inhibition at 1 µM was over 50% and the IC50 was determined as 0.48 nM. Take `O=C(Nc1cccc2cnccc12)NC1CC2(CCC2)Oc2ccc(Cl)cc21` (racemic) [Example 63, (±) 1-(6-Chloro-3,4-dihydro-spiro[2H-1-benzopyran-2,1′-cyclobutane]-4-yl)-3-(isoquinolin-5-yl)urea]: the inhibition at 1 µM was over 50% and the IC50 worked out at 307 nM. Take `O=C(Nc1cccc2cnccc12)NC1CC2(CCC2)S(=O)(=O)c2ccccc21` (racemic) [Example 82, (±) 1-(1,1-dioxo-3,4-dihydro-spiro[2H-1-benzothiopyran-2,1′cyclobutane]-4-yl)-3-(isoquinolin-5-yl)urea]: the IC50 was determined as 224 nM and the “% inhibition of ^45Ca uptake at 1 μM” value is on record as over 50%. In the case of `O=C(NCc1ccccn1)NC1CC2(CCC2)Oc2ccccc21` (racemic) [Example 32, (±) 1-(3,4-Dihydro-spiro[2H-1-benzopyran-2,1′-cyclobutane]-4-yl)-3-(pyridin-2-ylmethyl)urea], the inhibition at 1 µM was under 50%. As to `Cn1ncc2cc(NC(=O)NC3CC4(CCC4)Oc4ccccc43)ccc21` (racemic) [Example 13, (±) 1-(3,4-Dihydro-spiro[2H-1-benzopyran-2,1′-cyclobutane]-4-yl)-3-(1-methyl-1H-indazol-5-yl)urea], the inhibition at 1 µM is over 50% and the IC50 was 147 nM. For the compound `O=C(Nc1nnc(-c2ccc(Br)cc2)s1)NC1CC2(CCC2)Oc2ccccc21` (racemic) [Example 21, (±) 1-(3,4-Dihydro-spiro[2H-1-benzopyran-2,1′-cyclobutane]-4-yl)-3-([5-(4-bromophenyl)-1,3,4-thiadiazol-2-yl]-)urea], the “% inhibition of ^45Ca uptake at 1 μM” value is recorded as under 50%. Turning to `O=C(Nc1cccc2cnccc12)NC1CC2(CCC2)Oc2cc(OC(F)F)ccc21` (racemic) [Example 54, (±) 1-(7-Difluoromethoxy-3,4-dihydro-spiro[2H-1-benzopyran-2,1′-cyclobutane]-4-yl)-3-(isoquinolin-5-yl)urea. Hydrochloride], the inhibition at 1 µM was over 50% and the concentration for half-maximal inhibition (IC50) amounted to 2.23 nM. `O=C(NCc1ccncc1)N[C@H]1CC2(CCC2)Oc2ccccc21` [Example 37]: the inhibition at 1 µM worked out at 0%. With `O=C(Nc1cccc2nsnc12)NC1CC2(CCC2)Oc2ccccc21` (stereo not shown) [Example 28, N-2,1,3-benzothiadiazol-4-yl-N′-3,3′,4,4′-tetrahydro-2′H-spiro[chromene-2,1′-cyclobutan]-4-ylurea (N-2,1,3-benzothiadiazol-4-yl-N′-3,4-dihydro-2H-spiro[chromene-2,1′-cyclobutan]-4-ylurea)], the “% inhibition of ^45Ca uptake at 1 μM” value is on record as under 50%.

For the compound `Cc1nccc2c(NC(=O)NC3CC4(CCC4)Oc4ccc(Cl)cc43)cccc12` (racemic) [Example 74, (±) 1-(6-Chloro-3,4-dihydro-spiro[2H-1-benzopyran-2,1′-cyclobutane]-4-yl-3-(1-methylisoquinolin-5-yl)urea], the inhibition at 1 µM was over 50% and the IC50 came out at 917 nM.

Consider `O=C(Nc1cccc2cnccc12)NC1CC2(CCC2)Oc2ccc(F)cc21` (single isomer, unassigned; (+)) [Example 43, (+) 1-(3,4-Dihydro-6-fluoro-spiro[2H-1-benzopyran-2,1′-cyclobutane]-4-yl)-3-(isoquinolin-5-yl)urea], for which the inhibition at 1 µM is over 50% and the IC50 was found to be 5.2 nM. Take `O=C(Nc1ccc(Cl)c2cnccc12)NC1CC2(CCC2)Oc2ccc(F)cc21` (racemic) [Example 71, (±) 1-(6-Fluoro-3,4-dihydro-spiro[2H-1-benzopyran-2,1′-cyclobutane]-4-yl)-3-(8-chloroisoquinolin-5-yl)urea]: the inhibition at 1 µM is over 50% and the IC50 was 591 nM. Regarding `Cc1ccc2c(c1)C(NC(=O)Nc1cccc3cnccc13)CC1(CCC1)O2` (racemic) [Example 40, (±)-1-(3,4-Dihydro-6-methyl-spiro[2H-1-benzopyran-2,1′-cyclobutane]-4-yl)-3-(isoquinolin-5-yl)urea], the inhibition at 1 µM is over 50% and the 50% inhibitory concentration (IC50) stood at 123 nM.
